Among the data in the Kinase Knowledgebase extract (Sharma et al. 2016) are Ki values, retold here.

The target of the test is CDK2 (UniProt P24941). Nature of the test: Enzyme Assay.

pKi: −log10 of the molar value.

For `COc1ccc2c(Nc3cc(C)n[nH]3)nc(Sc3ccc(NC(C)=O)cc3)nc2c1`, the pKi – broadly, −log10 of the Ki, conventionally taken in molar units – is 4.70 to 6.00.

With `Cc1cc(Nc2nc(Nc3ccc(CC#N)cc3)nc3ccccc23)[nH]n1`, the negative logarithm of the Ki (pKi) is greater than 6.00.

`CC(=O)Nc1ccc(Sc2nc(Nc3cc(C4CC4)n[nH]3)c3ccccc3n2)cc1`: the pKi is greater than 6.00.

Regarding `OCCc1ccc(Nc2nc(Nc3cc(C4CC4)n[nH]3)c3ccccc3n2)cc1`, the pKi was greater than 6.00.

As to `CC(=O)Nc1ccc(Sc2nc(Nc3cc(C)n[nH]3)c3cccc(O)c3n2)cc1`, the pKi is 4.70 to 6.00.

For the compound `CC(=O)Nc1ccc(Sc2nc(Nc3cc(C)n[nH]3)c3ccccc3n2)cc1`, the pKi is 4.70 to 6.00.

In turn, `Cc1cc(Nc2nc(Nc3ccc4ncsc4c3)nc3ccccc23)[nH]n1` gave a pKi greater than 6.00.

The compound `N#CCc1ccc(Nc2nc(Nc3cc(C4CC4)n[nH]3)cc(-c3ccccc3)n2)cc1` gave a pKi greater than 6.00.

In the case of `CCCS(=O)(=O)Nc1ccc(Sc2nc(Nc3cc(C)n[nH]3)c3ccccc3n2)cc1`, the pKi is 4.70 to 6.00.

Compound `Cc1cccc(Sc2nc(Nc3cc(C)n[nH]3)c3ccccc3n2)c1` gave a pKi greater than 6.00.

As for `COc1cccc2c(Nc3cc(C)n[nH]3)nc(Sc3ccc(NC(C)=O)cc3)nc12`, the pKi was 4.70 to 6.00.

Consider `CCc1ccc(Nc2nc(Nc3cc(C4CC4)n[nH]3)c3ccccc3n2)cc1`, for which the pKi was greater than 6.00.

`c1ccc2c(Nc3cc(C4CC4)n[nH]3)nc(Nc3ccc4ncsc4c3)nc2c1` showed a pKi greater than 6.00.
